Series [1] addresses T1, Leucine-rich repeat serine/threonine-protein kinase 2 (Homo sapiens, UniProt Q5S007, G2019S). Put plainly: Inhibition of LRRK2 G2019S mutant (unknown origin) using LRRKtide as substrate pre-incubated for 15 min and measured after 1 hrs by HTRF assay.
The subject of a further series is MDR1 (P-gp). Put plainly: Efflux ratio of permeability across basolateral to apical side over apical to basolateral side in dog MDCKII-MDR1 cells. It counts as ADME, cell-based, Canis lupus familiaris. Particulars: MDCK-MDR1.
Series [2] in a line: Stability in rat liver microsomes assessed as half life at 0.5 uM incubated up to 45 min in the presence of NADPH regenerating system by LC MS/MS analysis. It counts as ADME, Microsome. Background: Liver microsomes are vesicles of endoplasmic reticulum, rich in cytochrome P450 enzymes.
Series [3] concerns the target T1, Leucine-rich repeat serine/threonine-protein kinase 2. Put plainly: Inhibition of human LRRK2 G2019S mutant phosphorylation at S1292 in human HEK293 cells incubated for 2 hrs. It counts as cell-based.
For series [4] the target is unchanged. Put plainly: Inhibition of phosphorylated human LRRK2 G2019S mutant at S935 in human HEK293 cells incubated for 2 hrs. It counts as cell-based.
The nature of series [5]: Stability in human liver microsomes assessed as half life at 0.5 uM incubated up to 45 min in the presence of NADPH regenerating system by LC MS/MS analysis. It counts as ADME, Microsome.

Each structure is given as a SMILES string. pIC50: −log10 of the molar value.

T1 sequence (Q5S007 whole entry G2019S): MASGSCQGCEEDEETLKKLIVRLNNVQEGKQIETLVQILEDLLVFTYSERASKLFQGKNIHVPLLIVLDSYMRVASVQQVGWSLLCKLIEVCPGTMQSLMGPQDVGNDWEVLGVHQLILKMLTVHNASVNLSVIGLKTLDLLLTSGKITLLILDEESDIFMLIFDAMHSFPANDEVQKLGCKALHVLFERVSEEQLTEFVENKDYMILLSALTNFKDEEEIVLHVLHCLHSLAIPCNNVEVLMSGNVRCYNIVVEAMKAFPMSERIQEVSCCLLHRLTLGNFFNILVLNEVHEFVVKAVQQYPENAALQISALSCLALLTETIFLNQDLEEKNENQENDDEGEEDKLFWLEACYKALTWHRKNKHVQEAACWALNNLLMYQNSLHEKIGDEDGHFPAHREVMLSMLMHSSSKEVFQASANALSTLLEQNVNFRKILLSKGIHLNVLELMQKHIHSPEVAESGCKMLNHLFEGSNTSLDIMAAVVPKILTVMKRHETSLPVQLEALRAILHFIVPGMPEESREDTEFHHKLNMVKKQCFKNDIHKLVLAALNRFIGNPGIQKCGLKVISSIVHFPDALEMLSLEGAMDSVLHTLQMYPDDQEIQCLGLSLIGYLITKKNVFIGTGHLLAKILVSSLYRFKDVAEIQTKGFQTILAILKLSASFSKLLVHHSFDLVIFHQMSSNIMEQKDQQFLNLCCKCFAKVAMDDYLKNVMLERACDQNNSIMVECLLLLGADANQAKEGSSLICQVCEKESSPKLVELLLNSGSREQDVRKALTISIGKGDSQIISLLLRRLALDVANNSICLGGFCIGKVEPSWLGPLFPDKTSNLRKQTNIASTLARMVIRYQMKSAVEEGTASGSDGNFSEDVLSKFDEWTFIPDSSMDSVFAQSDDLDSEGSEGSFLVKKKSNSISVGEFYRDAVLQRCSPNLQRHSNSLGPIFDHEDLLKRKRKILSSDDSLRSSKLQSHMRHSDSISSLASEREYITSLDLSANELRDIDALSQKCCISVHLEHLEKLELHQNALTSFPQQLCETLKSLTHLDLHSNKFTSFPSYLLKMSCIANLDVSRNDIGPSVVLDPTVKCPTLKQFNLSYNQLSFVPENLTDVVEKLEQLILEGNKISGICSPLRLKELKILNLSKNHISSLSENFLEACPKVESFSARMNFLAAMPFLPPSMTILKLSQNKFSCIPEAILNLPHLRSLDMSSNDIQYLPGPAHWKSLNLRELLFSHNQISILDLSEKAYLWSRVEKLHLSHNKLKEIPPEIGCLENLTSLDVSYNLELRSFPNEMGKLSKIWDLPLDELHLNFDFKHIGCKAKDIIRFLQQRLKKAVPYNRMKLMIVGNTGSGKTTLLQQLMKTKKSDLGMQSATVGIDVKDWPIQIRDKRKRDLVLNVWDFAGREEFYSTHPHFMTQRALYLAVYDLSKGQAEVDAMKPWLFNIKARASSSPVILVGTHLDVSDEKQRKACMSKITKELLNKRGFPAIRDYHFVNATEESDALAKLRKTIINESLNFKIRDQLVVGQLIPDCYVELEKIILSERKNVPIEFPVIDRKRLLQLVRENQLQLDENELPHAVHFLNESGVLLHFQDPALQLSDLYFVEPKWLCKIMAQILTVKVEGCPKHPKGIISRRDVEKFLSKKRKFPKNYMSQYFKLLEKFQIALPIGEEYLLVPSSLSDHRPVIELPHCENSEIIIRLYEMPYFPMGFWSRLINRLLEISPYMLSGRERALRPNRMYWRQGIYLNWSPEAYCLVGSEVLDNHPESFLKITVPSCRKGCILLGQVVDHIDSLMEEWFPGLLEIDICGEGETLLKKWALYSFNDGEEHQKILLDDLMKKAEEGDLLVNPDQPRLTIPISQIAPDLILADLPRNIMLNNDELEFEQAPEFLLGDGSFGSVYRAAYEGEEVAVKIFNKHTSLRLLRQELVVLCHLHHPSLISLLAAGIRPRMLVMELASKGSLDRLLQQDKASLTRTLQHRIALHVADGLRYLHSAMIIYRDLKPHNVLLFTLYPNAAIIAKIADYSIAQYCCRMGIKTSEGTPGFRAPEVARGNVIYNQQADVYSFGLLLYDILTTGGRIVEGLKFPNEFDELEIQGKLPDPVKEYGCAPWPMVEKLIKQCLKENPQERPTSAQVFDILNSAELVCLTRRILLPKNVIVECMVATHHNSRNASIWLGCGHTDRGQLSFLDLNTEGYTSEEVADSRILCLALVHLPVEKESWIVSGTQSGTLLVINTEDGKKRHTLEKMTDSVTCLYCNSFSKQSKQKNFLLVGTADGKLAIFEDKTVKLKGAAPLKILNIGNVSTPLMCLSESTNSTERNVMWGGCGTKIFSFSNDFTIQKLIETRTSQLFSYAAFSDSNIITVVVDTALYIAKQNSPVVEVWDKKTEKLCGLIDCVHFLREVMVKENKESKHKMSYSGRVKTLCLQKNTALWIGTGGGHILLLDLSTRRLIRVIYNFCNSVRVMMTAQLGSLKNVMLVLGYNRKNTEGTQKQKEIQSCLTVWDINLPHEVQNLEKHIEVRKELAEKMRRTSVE

`COCc1ccc(C(=O)Nc2ccc3[nH]nc(-c4ccoc4)c3c2)cc1`: the pIC50 in series [1] is 7.01.
On the same count and under the same terms, next, `N#Cc1ccc2c(c1)CCC[C@@H]2Oc1ccc2[nH]nc(-c3ccnc(N4CCOCC4)c3)c2c1`: 8.85.
The compound `N#Cc1ccc(C(=O)Nc2ccc3[nH]nc(-c4ccoc4)c3c2)cc1` had a pIC50 in series [1] of 7.39. Besides, in the series on MDR1 (P-gp), the efflux ratio came out at 1.9.
In the case of `Cc1n[nH]c2ccc(O[C@H]3CCc4cc(C#N)ccc43)cc12`, in series [1], the pIC50 is 7.85.
`Cc1n[nH]c2ccc(O[C@H]3CCCc4cc(C#N)ccc43)cc12`: the figures for the pIC50 in series [1], in series [3] and in series [4] were 8.55, 7.21 and 6.86, respectively. Further, the half-life at 0.5 µM was 18 min in series [2] and 35 min in series [5]. Further, the efflux ratio in the series with MDR1 (P-gp) was 1.3.
Turning to `Cn1ncc2cc(C(=O)Nc3ccc4[nH]nc(-c5ccoc5)c4c3)ccc21`, the pIC50 in series [1] is 7.89. For the same compound, in the series on MDR1 (P-gp), the efflux ratio worked out at 9.2.
Compound `N#Cc1ccc2c(c1)[C@@H](Nc1ccc3[nH]nc(Br)c3c1)CCC2` showed a pIC50 in series [1] of 7.85.
In the case of `N#Cc1ccc2c(c1)CC[C@@H]2Nc1ccc2[nH]nc(-c3ccoc3)c2c1`, the negative logarithm of the IC50 (pIC50) in series [1] was 7.96; in series [3], 7.24; in series [4] it was 7.02. Moreover, the half-life at 0.5 µM was found to be 54 min in series [2] and 25 min in series [5]. In addition, the efflux ratio in the series with MDR1 (P-gp) was 1.8.
Take `Cc1n[nH]c2ccc(O[C@@H]3CCc4cc(C#N)ccc43)cc12`: the negative logarithm of the IC50 (pIC50) in series [1] is 7.21.
The same measure, in the same setting: the value for `CC1=C(C(=O)Nc2ccc3[nH]ncc3c2)Cn2nnnc2N1C` was 7.46.
On the same count and under the same terms, the value for `N#Cc1ccc2c(c1)CC[C@H]2Nc1ccc2[nH]nc(-c3ccoc3)c2c1` was 7.20.
`N#Cc1ccc2c(c1)CCC[C@@H]2Oc1ccc2[nH]nc(-c3cnco3)c2c1`: the pIC50 in series [1] is over 9.70; in series [3], 8.46; in series [4], 8.21. Besides, the half-life at 0.5 µM was 42 min in series [2] and 28 min in series [5]. Also, the efflux ratio in the series with MDR1 (P-gp) is 1.7.
`CC1=C(C(=O)Nc2ccc3[nH]nc(-c4ccccc4)c3c2)C(C)(C)n2nnnc2N1C` showed a pIC50 in series [1] of 8.52.
The same measure, in the same setting: the value for `N#Cc1ccc2c(c1)C(=O)N(c1ccc3[nH]nc(C4CC4)c3c1)C2=O` was under 5.12; that for `CN(C)Cc1ccc(C(=O)Nc2ccc3[nH]nc(-c4ccoc4)c3c2)cc1` was 6.60; that for `N#Cc1ccc(C(=O)Nc2ccc3[nH]nc(C4CC4)c3c2)cc1` was 6.10.
The same measure, in the same setting: next, `CS(=O)(=O)c1ccc(C(=O)Nc2ccc3[nH]nc(-c4ccoc4)c3c2)cc1`: 7.31.
On the same count and under the same terms, next, `O=C(Nc1ccc2[nH]nc(-c3ccoc3)c2c1)c1cnc2cnccc2c1`: 6.76; `N#Cc1ccc2c(c1)CCC[C@@H]2Nc1ccc2[nH]nc(-c3cnco3)c2c1`: 9.05.
Take `N#Cc1ccc2c(c1)CC[C@@H]2Oc1ccc2[nH]nc(-c3cnco3)c2c1`: the negative-log IC50 (pIC50) in series [1] was 9.40; in series [3], 8.08; in series [4] it was 7.57. For the same compound, the half-life at 0.5 µM is 53 min in series [2] and 61 min in series [5]. The efflux ratio in the series with MDR1 (P-gp) is 2.2.
`N#Cc1ccc2c(c1)CN(c1ccc3[nH]nc(C4CC4)c3c1)C2=O`: the pIC50 in series [1] was 6.21.
On the same count and under the same terms, next, `N#Cc1ccc2c(c1)CCN(c1ccc3[nH]nc(C4CC4)c3c1)C2=O`: 5.26; `O=C(Nc1ccc2[nH]nc(-c3ccoc3)c2c1)c1nc2cnccc2s1`: 7.13.

Broadly, the pIC50 is −log10 of the IC50, conventionally taken in molar units. Read a low pIC50 as a large IC50. For orientation: efflux ratio means the permeability from basolateral to apical divided by that in the opposite direction, in the common usage. One may read the half-life as how long it takes for the measured level to halve.

The values above are taken from ChEMBL document CHEMBL5365501, “Brain-penetrant cyanoindane and cyanotetralin inhibitors of G2019S-LRRK2 kinase activity” (Bioorg Med Chem Lett, 2023).
